From ChEMBL document CHEMBL1134403, “Structure-based approach for the discovery of bis-benzamidines as novel inhibitors of matriptase” (J Med Chem, 2001)
pKi: −log10 of the molar value.

What was measured:
Prothrombin = Prothrombin (Homo sapiens, UniProt P00734); test: compound was tested for inhibitory activity against Thrombin
[1] = target: T1, Suppressor of tumorigenicity 14 protein (Homo sapiens, UniProt Q9Y5Y6); test: compound was tested for inhibitory activity against Matriptase
T1 sequence (Q9Y5Y6 whole entry): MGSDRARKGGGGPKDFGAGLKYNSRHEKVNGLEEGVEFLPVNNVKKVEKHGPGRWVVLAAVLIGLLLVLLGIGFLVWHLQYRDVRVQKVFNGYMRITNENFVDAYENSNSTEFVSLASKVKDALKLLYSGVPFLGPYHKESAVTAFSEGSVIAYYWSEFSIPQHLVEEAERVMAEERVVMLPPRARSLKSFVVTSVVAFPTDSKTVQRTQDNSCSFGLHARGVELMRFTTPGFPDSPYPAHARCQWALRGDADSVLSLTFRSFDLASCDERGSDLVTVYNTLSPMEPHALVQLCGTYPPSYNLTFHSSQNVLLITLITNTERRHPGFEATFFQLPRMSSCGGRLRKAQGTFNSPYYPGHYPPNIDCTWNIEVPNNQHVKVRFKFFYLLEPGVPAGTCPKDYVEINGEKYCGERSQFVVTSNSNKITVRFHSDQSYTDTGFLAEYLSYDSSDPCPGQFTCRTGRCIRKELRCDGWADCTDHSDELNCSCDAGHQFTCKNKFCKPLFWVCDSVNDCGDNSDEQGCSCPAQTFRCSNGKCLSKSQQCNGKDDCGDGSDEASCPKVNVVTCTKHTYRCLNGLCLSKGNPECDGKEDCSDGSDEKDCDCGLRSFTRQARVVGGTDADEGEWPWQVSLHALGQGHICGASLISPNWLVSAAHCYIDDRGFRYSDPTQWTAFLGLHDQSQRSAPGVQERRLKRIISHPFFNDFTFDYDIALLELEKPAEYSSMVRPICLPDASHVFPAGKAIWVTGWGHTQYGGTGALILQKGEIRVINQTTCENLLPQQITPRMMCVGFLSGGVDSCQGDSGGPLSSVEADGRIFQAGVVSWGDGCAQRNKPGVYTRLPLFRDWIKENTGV

SMILES	pKi (Prothrombin)	pKi [1]
N=C(N)c1ccc(Oc2ccc(Oc3ccc(C(=N)N)cc3)cc2)cc1	5.57	–
N=C(N)c1ccc(CCc2ccc(C(=N)N)cc2)cc1	–	< 5.00
N=C(N)c1ccc(OCCCCCCOc2ccc(C(=N)N)cc2)cc1 [HEXAMIDINE]	6.65	–

Continued, values first:

pKi (Prothrombin)	pKi [1]	SMILES
6.10	–	N=C(N)c1ccc(OCCCCCCOc2ccc(C(=N)N)cc2I)cc1
6.02	–	N=C(N)c1ccc(OCCCOc2ccc(C(=N)N)cc2Br)c(Br)c1 [DIBROMPROPAMIDINE]
